PubChem BioAssay AID2060329 (Molecular Pharmacology Branch, DTP, NCI, 2025)

System: MCF7 multi-cell spheroids with HUVEC/MSC, viability
Experiment: Anticancer human tumor MCF7 cell line growth inhibition [IpAb];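 note: spheroids exposed to agents for seven days before readout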
Settings: for IC50: curve of first compound; for viability, T/C: stronger effect = lower value
Source text: Combinatorial screen of targeted agents with ipatasertib and abemaciclib in multi-cell type tumor spheroids
A high-throughput screen of multi-cell type tumor spheroids was designed to identify active combinations of targeted small molecules and ipatasertib or abemaciclib. Complex spheroids include a stromal component modeled by human endothelial cells (HUVEC) and fibroblasts modeled by human mesenchymal stem cells (MSCs). The concentration ranges selected for each drug and investigational agent were based upon clinically achievable concentrations if the clinical Cmax of the agent was known.
Compounds. The drugs and investigational agents: ipatasertib (NSC767898), abemaciclib(NSC768073), selumetinib (NSC741078), trametinib (758246), adavosertib (NSC754352), everolimus (NSC733504), sapanisertib (NSC764658), vemurafenib (NSC761431), venetoclax (NSC766270), copanlisib (NSC809693), apelisib (NSC765974), palbociblib (NSC758247), vemurafenib (NSC761431), dabrafenib (NSC764134), ravoxertinib (NSC781343), BMS-387032 (NSC767048), sotorasib (NSC818433), talazoparib (NSC767125) and afursertib (NSC778305), were obtained from the National Cancer Institute (NCI) Developmental Therapeutics Program Chemical Repository. The FDA-approved anticancer drug set is available from the NCI Developmental Therapeutics Program. […] The stock solutions were prepared in dimethyl sulfoxide (DMSO, Sigma-Aldrich, St. Louis, MO, cat. D2650) at 800-fold the tested concentration and stored at -70 degrees C prior to their use. All drugs and investigational agents were tested over a range starting from a high concentration at or near the clinical Cmax and decreasing in half-log increments. If the clinical Cmax for an agent had not been determined, the highest concentration tested was 10 microM.
NCI60 Cell Culture. NCI60 cell lines were obtained from the NCI Developmental Therapeutics Program Tumor Repository. For each lot of cells, the Repository performed Applied Biosystems AmpFLSTR Identifiler testing with PCR amplification to confirm consistency with the published Identifier STR profile for each cell line. Cells were kept in continuous culture for no more than 20 passages. The optimal seeding densities for each of the cell lines at each time point assessed were determined prior to performing the concentration response studies. Briefly, the NCI60 human tumor lines were grown as monolayers in RPMI 1640 medium supplemented with 10% FBS and 2 mmol/L L-glutamine.
An additional 9 lines were from the NCI60 cell line panel including MDA-MB-231 breast carcinoma, MDA-MB-468 breast carcinoma, MCF7 breast carcinoma, Hs578T breast carcinoma, MALME-3M melanoma, SK-MEL-2 melanoma, SK-OV-3 ovarian carcinoma, DU-145 prostate carcinoma, PC-3 prostate carcinoma, all cell lines along with major genetic alterations are listed on Table 2. Pooled donor human umbilical vein endothelial cells (HUVEC, Lonza, cat. CC-2519) and human mesenchymal stem cells (hMSC, Lonza, cat. PT-2501) were purchased from Lonza (Walkersville, MD).
PDMR cell lines were grown in complete medium (DC medium): Dulbecco's modified Eagle's medium (DMEM)/F12 supplemented with 5% fetal bovine serum (FBS), 2 mM L-glutamine, 100 U/mL penicillin and 100 µg/ml streptomycin, 0.4 µg/ml hydrocortisone, 10 ng/ml epidermal growth factor (EGF) recombinant human protein, 24 µg/mL adenine, and 0.1 mg/mL primocin. During culture from frozen stock vials, PDMR cells were cultured in the same medium containing 10 µM Y-27632 (see Table 3). The PDCs were cultured in complete DMEM/F12 media without 10 microM Y-27632 dihydrochloride for at least two passages prior to the screen. The pooled donor HUVEC and hMSC were cultured in endothelial cell growth medium 2 (PromoCell, Heidelberg, Germany, cat. C-22011) and mesenchymal stem cell growth medium 2 (PromoCell, cat. C-28009), respectively. For all experiments, HUVEC and hMSC were used at passages </=5.
[…]

[1] = second compound 0.1 µM, first compound 0.0316 µM
[2] = second compound 0.1 µM, first compound 0.1 µM
[3] = second compound 0.1 µM, first compound 0.316 µM
[4] = second compound 0.1 µM, first compound 1 µM
[5] = second compound 0.1 µM, first compound 3.16 µM
[6] = second compound 0.1 µM, first compound 10 µM
[7] = second compound 0.316 µM, first compound 0.0316 µM
[8] = second compound 0.316 µM, first compound 0.1 µM
[9] = second compound 0.316 µM, first compound 0.316 µM
[10] = second compound 0.316 µM, first compound 1 µM
[11] = second compound 0.316 µM, first compound 3.16 µM
[12] = second compound 0.316 µM, first compound 10 µM
[13] = second compound 1 µM, first compound 0.0316 µM
[14] = second compound 1 µM, first compound 0.1 µM
[15] = second compound 1 µM, first compound 0.316 µM
[16] = second compound 1 µM, first compound 1 µM
[17] = second compound 1 µM, first compound 3.16 µM
[18] = second compound 1 µM, first compound 10 µM
[19] = second compound 3.16 µM, first compound 0.0316 µM
[20] = second compound 3.16 µM, first compound 0.1 µM
[21] = second compound 3.16 µM, first compound 0.316 µM
[22] = second compound 3.16 µM, first compound 1 µM
[23] = second compound 3.16 µM, first compound 3.16 µM
[24] = second compound 3.16 µM, first compound 10 µM
[25] = second compound 10 µM, first compound 0.0316 µM
[26] = second compound 10 µM, first compound 0.1 µM
[27] = second compound 10 µM, first compound 0.316 µM
[28] = second compound 10 µM, first compound 1 µM
[29] = second compound 10 µM, first compound 3.16 µM
[30] = second compound 10 µM, first compound 10 µM

Work on CC1(C)CCC(CN2CCN(c3ccc(C(=O)NS(=O)(=O)c4ccc(NCC5CCOCC5)c([N+](=O)[O-])c4)c(Oc4cnc5[nH]ccc5c4)c3)CC2)=C(c2ccc(Cl)cc2)C1 + CC(C)NCC(C(=O)N1CCN(c2ncnc3c2C(C)CC3O)CC1)c1ccc(Cl)cc1 yielded an IC50 (second compound 0.1 µM) of 6 µM, an IC50 (second compound 0.316 µM) of 4.52 µM and an IC50 (second compound 1 µM) of 2.51 µM. The IC50 (second compound 3.16 µM) was 0.0337 µM, the IC50 (second compound 10 µM) was < 0.0316 µM and the viability, T/C [1] was 85%. The viability, T/C [2] was 83.3%, the viability, T/C [3] was 87.6% and the viability, T/C [4] was 84.2%. The viability, T/C [5] was 84.9%, the viability, T/C [6] was 22.2% and the viability, T/C [7] was 72.4%. The viability, T/C [8] was 74.9%, the viability, T/C [9] was 69.5% and the viability, T/C [10] was 72.1%. The viability, T/C [11] was 67.3%, the viability, T/C [12] was 11.3% and the viability, T/C [13] was 69.4%. For the same compound, the viability, T/C [14] was 64.9%, the viability, T/C [15] was 70.1% and the viability, T/C [16] was 56.1%. The viability, T/C [17] was 49.5%, the viability, T/C [18] was 10.9% and the viability, T/C [19] was 47.9%. For the same compound, the viability, T/C [20] was 51.6%, the viability, T/C [21] was 51.3% and the viability, T/C [22] was 39.7%. The viability, T/C [23] was 34.1%, the viability, T/C [24] was 9.03% and the viability, T/C [25] was 39.3%. The viability, T/C [26] was 34.5%, the viability, T/C [27] was 32.1% and the viability, T/C [28] was 27.8%. It also gave a viability, T/C [29] of 29.7% and a viability, T/C [30] of 5.76%.
For CCCS(=O)(=O)Nc1ccc(F)c(C(=O)c2c[nH]c3ncc(-c4ccc(Cl)cc4)cc23)c1F + CC(C)NCC(C(=O)N1CCN(c2ncnc3c2C(C)CC3O)CC1)c1ccc(Cl)cc1, the IC50 (second compound 0.1 µM) was > 10 µM, the IC50 (second compound 0.316 µM) was > 10 µM and the IC50 (second compound 1 µM) was > 10 µM. The IC50 (second compound 3.16 µM) was > 10 µM, the IC50 (second compound 10 µM) was 0.0316 µM and the viability, T/C [1] was 97%. For the same compound, the viability, T/C [2] was 90%, the viability, T/C [3] was 90.3% and the viability, T/C [4] was 98.8%. It also gave a viability, T/C [5] of 98.5%, a viability, T/C [6] of 101% and a viability, T/C [7] of 85.4%. The viability, T/C [8] was 76.6%, the viability, T/C [9] was 86.3% and the viability, T/C [10] was 76.5%. For the same compound, the viability, T/C [11] was 80.2%, the viability, T/C [12] was 85.2% and the viability, T/C [13] was 73.2%. It also gave a viability, T/C [14] of 70.3%, a viability, T/C [15] of 69.1% and a viability, T/C [16] of 64.5%. For the same compound, the viability, T/C [17] was 71.3%, the viability, T/C [18] was 76.6% and the viability, T/C [19] was 59.4%. The viability, T/C [20] was 60.1%, the viability, T/C [21] was 53.5% and the viability, T/C [22] was 52.7%. The viability, T/C [23] was 79.8%, the viability, T/C [24] was 60% and the viability, T/C [25] was 43.4%. It also gave a viability, T/C [26] of 42.7%, a viability, T/C [27] of 44.1% and a viability, T/C [28] of 52.4%. It also gave a viability, T/C [29] of 53.7% and a viability, T/C [30] of 9.37%.
COc1c(OCCCN2CCOCC2)ccc2c3n(c(=NC(=O)c4cnc(N)nc4)nc12)CCN3 + CC(C)NCC(C(=O)N1CCN(c2ncnc3c2C(C)CC3O)CC1)c1ccc(Cl)cc1 gave an IC50 (second compound 0.1 µM) of 0.0492 µM, an IC50 (second compound 0.316 µM) of 0.0317 µM and an IC50 (second compound 1 µM) of 0.0146 µM. The IC50 (second compound 3.16 µM) was < 0.00316 µM, the IC50 (second compound 10 µM) was < 0.00316 µM and the viability, T/C (second compound 0.1 µM, first compound 0.00316 µM) was 86%. It also gave a viability, T/C (second compound 0.1 µM, first compound 0.01 µM) of 80.2%, a viability, T/C [1] of 58.3% and a viability, T/C [2] of 37%. It also gave a viability, T/C [3] of 9.3%, a viability, T/C [4] of 11.8% and a viability, T/C (second compound 0.316 µM, first compound 0.00316 µM) of 75.1%. The viability, T/C (second compound 0.316 µM, first compound 0.01 µM) was 65.8%, the viability, T/C [7] was 49.8% and the viability, T/C [8] was 30.5%. It also gave a viability, T/C [9] of 9.83%, a viability, T/C [10] of 12.4% and a viability, T/C (second compound 1 µM, first compound 0.00316 µM) of 61.9%. The viability, T/C (second compound 1 µM, first compound 0.01 µM) was 56.4%, the viability, T/C [13] was 37.7% and the viability, T/C [14] was 22%. It also gave a viability, T/C [15] of 10.7%, a viability, T/C [16] of 11.2% and a viability, T/C (second compound 3.16 µM, first compound 0.00316 µM) of 45.9%. The viability, T/C (second compound 3.16 µM, first compound 0.01 µM) was 48.7%, the viability, T/C [19] was 35.4% and the viability, T/C [20] was 32%. It also gave a viability, T/C [21] of 9.39%, a viability, T/C [22] of 10.6% and a viability, T/C (second compound 10 µM, first compound 0.00316 µM) of 33.8%. For the same compound, the viability, T/C (second compound 10 µM, first compound 0.01 µM) was 34.9%, the viability, T/C [25] was 37.4% and the viability, T/C [26] was 21.7%. The viability, T/C [27] was 6.28% and the viability, T/C [28] was 5.07%.
In the case of Cc1nc(NC(=O)N2CCCC2C(N)=O)sc1-c1ccnc(C(C)(C)C(F)(F)F)c1 (stereo not given) + CC(C)NCC(C(=O)N1CCN(c2ncnc3c2C(C)CC3O)CC1)c1ccc(Cl)cc1, the IC50 (second compound 0.1 µM) is reported as 1.81 µM, the IC50 (second compound 0.316 µM) is reported as 0.398 µM and the IC50 (second compound 1 µM) is reported as < 0.0316 µM. For the same compound, the IC50 (second compound 3.16 µM) was < 0.0316 µM, the IC50 (second compound 10 µM) was < 0.0316 µM and the viability, T/C [1] was 68.9%. It also gave a viability, T/C [2] of 66.4%, a viability, T/C [3] of 56.9% and a viability, T/C [4] of 52.7%. For the same compound, the viability, T/C [5] was 49.6%, the viability, T/C [6] was 20.4% and the viability, T/C [7] was 62.4%. For the same compound, the viability, T/C [8] was 57%, the viability, T/C [9] was 50.3% and the viability, T/C [10] was 42.8%. For the same compound, the viability, T/C [11] was 37.8%, the viability, T/C [12] was 19.9% and the viability, T/C [13] was 45.8%. For the same compound, the viability, T/C [14] was 52.7%, the viability, T/C [15] was 36.2% and the viability, T/C [16] was 34.7%. The viability, T/C [17] was 34.4%, the viability, T/C [18] was 9.85% and the viability, T/C [19] was 36.9%. It also gave a viability, T/C [20] of 38.1%, a viability, T/C [21] of 35.4% and a viability, T/C [22] of 29.5%. The viability, T/C [23] was 27.1%, the viability, T/C [24] was 7.55% and the viability, T/C [25] was 28.6%. For the same compound, the viability, T/C [26] was 25.9%, the viability, T/C [27] was 26.1% and the viability, T/C [28] was 21.5%. The viability, T/C [29] was 28.4% and the viability, T/C [30] was 1.68%.
